Experimental data from patent publication US20260108480A1, “METHODS FOR INDUCING PROLIFERATION OF STEM CELLS” (UNIVERSITY OF PITTSBURGH-OF THE COMMONWEALTH SYSTEM OF …, priority 2022, published 2026).
“Also recorded” adds a separate entry of the source.

What was measured:
[1] = system: GFP+ (PRX1 expressing) and GFP- cells of explanted calvarial sutures of PRX1-creER-EGFP+/+ mice; test: FAC-sorting analysis of tissue-cultured explanted sutures (ex vivo); assay type: cell-based, mouse
From the text: (§1) FIGS. 22A-22H. […] (22A-22B) MTT proliferation assays of primary PRX1 expressing cells isolated from the calvarial sutures of PRX1-creER-EGFP+/+ mice. […] (22C) MTT proliferation assays of immortalized PRX1 expressing cells isolated from the calvarial sutures of PRX1-creER-EGFP+/+ mice. […] (22D-22F) Quantitative RT-PCR of osteoblast differentiation genes of immortalized PRX1 expressing cells isolated from the calvarial sutures of PRX1-creER-EGFP+/+ mice. […] (22G-22H) FAC-sorting analysis of tissue-cultured sutures isolated from of PRX1-creER-EGFP+/+ mice. Suture were explanted and cultured ex vivo.
However, no increase of GFP-cells (22H) is detected. All above studies (22A-22E) were repeated 2 or 3 times, with consistent results.
WNT inhibitor candidates were identified by looking into cancer studies, as thousands of small molecules have been screened for their potential to inhibit WNT signaling in WNT-activated cancer cells (30). Several molecules have shown inhibition of canonical WNT activity in vitro but only few have been tested in vivo, in mice. Among those tested in vivo, 5 were selected because of their proven efficacy and safety: G007-LK (31), Pyrvinium (25,26), Quercetin (32,33), XAV939 (27), and Niclosamide (34). […]

[2] = system: osteoblast differentiation genes (RUNX2, SP7, Osteocalcin) in immortalized PRX1 expressing cells; test: Quantitative RT-PCR of osteoblast differentiation genes in immortalized PRX1 expressing cells; assay type: cell-based, mouse
From the text: as §1
(§2) WNT inhibitor candidates were identified by looking into cancer studies, as thousands of small molecules have been screened for their potential to inhibit WNT signaling in WNT-activated cancer cells (30). Several molecules have shown inhibition of canonical WNT activity in vitro but only few have been tested in vivo, in mice. Among those tested in vivo, 5 were selected because of their proven efficacy and safety: G007-LK (31), Pyrvinium (25,26), Quercetin (32,33), XAV939 (27), and Niclosamide (34). Actually, Niclosamide and Pyrvinium are anti-helminthic FDA-approved drugs (35,36) and Quercetin is a flavonol found in many fruits and vegetables that is used as an ingredient in supplements, beverages, or foods (33). […] Previous studies indicate that Niclosamide, besides inhibiting the WNT pathway, presents with various additional effects such as uncoupling oxidative phosphorylation and disrupting several different signaling pathways, including the NOTCH, mTORCT, NFkB, and STAT3 pathways (38-44).

[3] = system: PRX1 expressing SSCs; test: In vivo flow cytometry quantification of PRX1 expressing SSCs after IP treatment; design: species or system mouse; details: 8-week old mice, 20 mg/Kg IP, 5 days/week
Method: (§3) FIGS. 23A-23D. […] (23A-23C) Flow cytometry was utilized to quantify the number of PRX1 expressing SSCs after treatment with Niclosamide (20 mg/kg of body weight, IP, 5 days/week, for 3 consecutive weeks) or with vehicle (control) in calvarial sutures (23A), in the periosteum of long bones (23B), and in the periodontal ligament of posterior molar teeth (23C). 4 mice/treatment (2 males and 2 females). (23D) Micro-computed tomography was utilized to measure bone mass (BV/TV) in the femurs of male and female mice after treatment with Niclosamide (20 mg/kg of body weight, IP, 5 days/week for 3 consecutive weeks) or with vehicle (control) (n=2). […] To do so, skeletally mature 8-week old mice were treated with intraperitoneal (IP) injections of Niclosamide (20 mg/Kg of body weight) or vehicle (control) 5 days/week, for 3 weeks (FIGS. 23A-23D).

[4] = Micro-computed tomography of femur bone mass (BV/TV) after IP treatment; assay type: in vivo, mouse; details: male and female mice, 20 mg/Kg IP, 5 days/week, 3 weeks (FIG. 23D)
Method: as §3

[5] = system: critical size calvarial bone defect; test: Local delivery absorbed into a collagen sponge into critical size calvarial bone defect, μCT; assay type: in vivo, mouse; details: collagen sponge carrying 5 μg or 50 μg
Method: To test whether Niclosamide can induce bone regeneration when delivered by means of a collagen sponge instead of a methylcellulose gel, a critical size calvarial bone defect was created (2 mm in diameter) in the right parietal bone of skeletally mature C57Bl/6 female mice (8 week old mice). Immediately after creation of the defect, 5 μL of a 1 pg/pl solution of Niclosamide (dissolved in DMSO) or 5 μl of a 10 μg/μl solution of Niclosamide (dissolved in DMSO) were absorbed into a 1 mm×1 mm×1 mm collagen sponge. Then, the sponge carrying either 5 μg or 50 μg of Niclosamide was implanted into the calvarial bone defects (n=3). Bone defects of the control groups received collagen sponges absorbed with equal volumes (5 μl) of DMSO only Bone regeneration was assessed by means of μCT, 8 weeks after surgery (FIGS. 27A-27C) 3D rendering, (FIG. 27D) quantitative assessment of the regenerated Bone Volume (BV) within the Total Volume (TV) of the calvarial bone defects).

[6] = system: immortalized PRX1 expressing cells isolated from the calvarial sutures of PRX1-creER-EGFP+/+ mice; test: MTT proliferation assay of immortalized PRX1 expressing cells; assay type: cell-based, mouse; details: after 48 hours (FIG. 22C)
From the text: as §1
WNT inhibitor candidates were identified by looking into cancer studies, as thousands of small molecules have been screened for their potential to inhibit WNT signaling in WNT-activated cancer cells (30). Several molecules have shown inhibition of canonical WNT activity in vitro but only few have been tested in vivo, in mice. Among those tested in vivo, 5 were selected because of their proven efficacy and safety: G007-LK (31), Pyrvinium (25,26), Quercetin (32,33), XAV939 (27), and Niclosamide (34). Actually, Niclosamide and Pyrvinium are anti-helminthic FDA-approved drugs (35,36) and Quercetin is a flavonol found in many fruits and vegetables that is used as an ingredient in supplements, beverages, or foods (33). […]

[7] = system: critical size calvarial bone defect; test: Local delivery in carboxymethylcellulose gel into critical size calvarial bone defect, μCT; assay type: in vivo, mouse; details: 2 mm defect, 8 week old C57Bl/6 female mice, 10 μL 12% carboxymethylcellulose gel containing 100 μg niclosamide, 4 weeks after surgery, n=3
Method: Immediately after creation of the defect, 10 μL of a 12% carboxymethylcellulose gel (CONTROL) (24A) or 10 μL of a 12% carboxymethylcellulose gel containing 100 μg of niclosamide (TEST) (24B) were implanted within the bone defect. […] Student's t-test was used for statistical evaluation (n=3, ** indicates p<0.01). […] Immediately after creation of the defect, 10 μL of a 12% carboxymethylcellulose gel (CONTROL) or 10 μL of a 12% carboxymethylcellulose gel containing 100 g of niclosamide (TEST) were implanted within the bone defect (FIGS. 24A-24B). Bone regeneration was assessed by means of μCT, 4 weeks after surgery (FIG. 25). Student's t-test was used for statistical evaluation (n=3, ** indicates p<0.01).

[8] = system: periodontal ligament stem cells expressing Prx1 from mouse incisors; test: Flow cytometry quantification of Prx1 (GFP) expressing periodontal ligament cells in vitro; assay type: cell-based; details: 48 hours
From the text: To perform these studies, transgenic mice was utilized expressing green fluorescent protein (GFP) under the Prx1 promoter. Thus, using these transgenic mice, quantification of GFP expressing cells by means of flow cytometry can be utilized to quantify Prx1 expressing cells.

[9] = system: primary PRX1 expressing SSCs isolated from the calvarial sutures of PRX1-creER-EGFP mice; test: MTT proliferation assay of primary PRX1 expressing cells isolated from calvarial sutures; assay type: cell-based, mouse; details: for ability to induce proliferation of primary PRX1 expressing SSCs (screen of 5 WNT inhibitors): most effective concentrations of previous studies, FIGS. 22A-22B
From the text: as §1, §2

| Compound | GFP+ cells (PRX1 expressing cells) in explanted sutures ([1]; 2 weeks of incubation (FIG. 22G)) | GFP- cells (other cells of the sutures) in explanted sutures ([1]; 2 weeks of incubation (FIG. 22H)) | osteoblastic differentiation of PRX1 expressing SSCs (qRT-PCR) ([2]; FIGS. 22D-22F) | expression of RUNX2 (qRT-PCR) ([2]; immortalized PRX1 expressing cells, after 48 hours (FIG. 22D)) | expression of SP7 (qRT-PCR) ([2]; immortalized PRX1 expressing cells, after 48 hours (FIG. 22E)) | expression of Osteocalcin (OCN) (qRT-PCR) ([2]; immortalized PRX1 expressing cells, after 48 hours (FIG. 22F)) | proliferation of PRX1 expressing SSCs in the calvarial sutures ([3]; 3 weeks (FIG. 23A)) | proliferation of PRX1 expressing SSCs in the periosteum of long bones ([3]; 3 weeks (FIG. 23B)) | proliferation of PRX1 expressing SSCs in the periodontal ligament of the mouse molars ([3]; 3 weeks (FIG. 23C)) | bone mass (BV/TV) of femurs [4] | regenerated Bone Volume (BV) within Total Volume (TV) of the defect by μCT ([5]; 2 mm defect, 8 week old C57Bl/6 female mice, 8 weeks after surgery, n=3, not statistically significant) | adverse events / general health ([5]; 8 weeks) | proliferation (MTT) of immortalized PRX1 expressing cells [6] | bone regeneration by μCT [7] | number of Prx1 expressing (GFP) cells ([8]; 0.2 μM and 2 μM, more significant increases with higher doses) | increase of number of Prx1 expressing (GFP) cells ([8]; 2 μM, flow cytometry (FIG. 26E)) | proliferation (MTT) of primary PRX1 expressing cells ([9]; after 24 hours (FIG. 22A)) | proliferation (MTT) of primary PRX1 expressing cells ([9]; after 48 hours (FIG. 22B)) | effect on proliferation compared with the other screened molecules ([9]; comparison with Pyrvinium and Quercetin) | ability to induce proliferation of primary PRX1 expressing SSCs (screen of 5 WNT inhibitors) [9] |
| --- | --- | --- | --- | --- | --- | --- | --- | --- | --- | --- | --- | --- | --- | --- | --- | --- | --- | --- | --- | --- |
| O=C(Nc1ccc([N+](=O)[O-])cc1Cl)c1cc(Cl)ccc1O [Niclosamide] | proliferation of the PRX1 expressing SSCs was observed; also recorded: statistically significant increase | could not be detected; also recorded: no increase | inhibits their osteoblastic differentiation | statistically significant downregulation | statistically significant downregulation | statistically significant downregulation | induces proliferation | induces proliferation | induces proliferation | does not significantly reduce the bone mass | trend of increasing of the regenerated bone mass | no adverse events were recorded | could induce proliferation; also recorded: statistically significant proliferation | substantial amount of bone regeneration | increase in number | ~3.5 folds | statistically significant proliferation | statistically significant proliferation | most significant and prolonged effect | able to consistently induce proliferation |
| Cc1cc(/C=C/c2ccc3cc(N(C)C)ccc3[n+]2C)c(C)n1-c1ccccc1 [Pyrvinium] | – | – | – | – | – | – | – | – | – | – | – | – | – | – | – | – | statistically significant proliferation | statistically significant proliferation | – | able to consistently induce proliferation |
| O=c1c(O)c(-c2ccc(O)c(O)c2)oc2cc(O)cc(O)c12 [Quercetin] | – | – | – | – | – | – | – | – | – | – | – | – | – | – | – | – | – | – | – | able to consistently induce proliferation |
